Columns and labels:
[1] = tested on: cells; settings: pre-treatment of cells with leontopodic acid, Costa et al. 2010; cited from earlier work
[2] = tested on: rat primary cortical neurons; assay: Survival of primary cortical neurons injured by Aβ1-42 peptide (MAP-2 staining); type: cell-based; settings: Aβ1-42 peptide 20 μM, 24 hours, 0.1% DMSO
Experimental: (§1) The purpose of this study is to evaluate the effects of the root extract on rat primary cortical neurons, intoxicated by Aβ peptide according to the in vitro Alzheimer disease model described in Callizot et al., 2013 (Callizot N. et al., Operational dissection of β-amyloid cytopathic effects on cultured neurons, J Neurosci Res. 2013, 91: 706-16). The neuron survival as well as the integrity of the neuritic network are evaluated.
(§2) Four concentrations are tested: 10 ng/mL, 100 ng/mL, 1 μg/mL and 10 μg/mL of dry extract diluted in water with 0.1% of DMSO.
(§3) Rat cortical neurons are cultured as described in Singer et al., 1999 (Singer C, et al., Mitogen-activated protein kinase pathway mediates estrogen neuroprotection after glutamate toxicity in primary cortical neurons. J Neurosci. 1999, 19: 2455-2463) and Callizot et al., (2013). In summary, gravid female rats are killed by cervical dislocation after 15 days of pregnancy. The foetuses are collected and immediately placed on an ice L15 Leibovitz medium (Pan Biotech, Batch: 8810315) added with 2% of penicillin (10,000 U/mL) and a streptomycin solution (l0 mg/mL) (PS; Pan Biotech, batch: 1451013) and 1% of bovine serum albumin (BSA; Pan Biotech, batch: K180713). […] The viable cells are counted with a Neubauer cytometer, using the trypan blue exclusion test. […]

[3] = tested on: neuritic network of rat primary cortical neurons; assay: Neuritic network of primary cortical neurons injured by Aβ1-42 peptide (MAP-2 staining); type: cell-based; settings: Aβ1-42 peptide 20 μM, 24 hours, 0.1% DMSO
Experimental: as §1, §2, §3

Compound | cell survival [1] | production of reactive oxygen species (ROS) [1] | neurone death induced by the peptide alone [2] | loss of the neuritic network induced by the peptide alone [3]
C[C@H](O)CC(=O)O[C@@H](C(=O)O)[C@@H](OC(=O)/C=C/c1ccc(O)c(O)c1)[C@H](OC(=O)/C=C/c1ccc(O)c(O)c1)[C@H](OC(=O)/C=C/c1ccc(O)c(O)c1)C(=O)O [leontopodic acid] | no improvement in the cell survival | decrease in the production of reactive oxygen species (ROS) | – | –
Aβ1-42 peptide: β-amyloid peptide (Bachem) used at 20 μM to intoxicate cortical neurons | – | – | significant neurone death | significant loss of the neuritic network

Reference: patent US20200375880A1, “PLANT EXTRACTS FROM THE TAGETES GENUS AND USES OF SAME” (PLANT ADVANCED TECHNOLOGIES PAT, priority 2016, published 2020)
